Measured values from patent US9896482B2, “Beta hairpin peptides having antiviral properties against Dengue virus” (CENTRO DE INGENIERÍA GENÉTICA Y BIOTECNOLOGÍA, priority 2014, dated 2018).
pIC50, pKd: −log10 of the molar value. Read-outs that look alike come from different tables or passages of the source. Where a SMILES comes first, the peptide text is derived from it. Bridges are numbered along the chain shown (N, C = ends). [ ]: non-standard residue; d: D form.

Legend:
[1] = Toxicity in Vero cells (MTT assay and manual cell counting); type: cell-based; settings: ‡ non toxic at 1000 μM, read-out: Ctox50
Procedure: (§1) The toxicity of the beta hairpin peptides was assessed with the MTT (3-(4,5-dimethylthiazol-2-yl)-2,5-diphenyltetrazolium bromide, Invitrogen, USA) assay (Mosmann, T. (1983). J. Immunol. Methods 65, 55-63.), and by manual cell counting using a Neubauer chamber. Ninety-six well plates (Costar, USA) were seeded with 200 μL/well of a suspension containing Vero cells at 1×10^5 cells/mL and incubated until the monolayers reached approximately 90% confluence, typically for 18-24 h. After washing the cells twice with DMEM (Dulbecco's Modified Eagle Medium) medium, 50 μL/well were added of the peptide or additive dilutions to be evaluated (Triton ^X-100™ dissolved in PBS was used as positive toxicity control) and the plates were incubated at 37° C. under a 5% CO2 atmosphere for 2 or 24 h. Two different procedures were then employed to measure toxicity: • a) A 2 mg/mL solution of MTT in PBS was added (50 μL/well) and the plates were incubated for further 4 h at 37° C., 5% CO2. The medium was then removed, and 100 μL/well of DMSO were then added to solubilize formazan precipitates. Finally, the optical density (OD) of the supernatants at a wavelength of 540 nm was measured using a plate reader (Sensident Scan™, Merck, Germany). • b) The plates were washed with 200 μL/well of DMEM medium and then a trypsin solution (Sigma, USA) was added at 50 μL/well. After inactivating the trypsin by adding 150 μL/well of DMEM supplemented with 10% FBS, the cells were counted using the Trypan Blue (Gibco, USA) vital stain. The data were processed using the statistical software package Prism v5.3 (GraphPad, USA), using non-linear regression to fit them to a log10 (concentration) vs response curve.

[2] = tested on: DENV 4 (NIBSC code TVP360); assay: Plaque reduction assay in Vero cells, DENV4; type: cell-based, Dengue virus; settings: m.o.i. 0.001, read-out: Antiviral activity IC50 vs DENV4
Procedure: (§2) The cells were grown in 24 well plates until the monolayer reached approximately 90% confluence, after which they were washed twice with MEM medium without Fetal Bovine Serum (FBS). Then, peptide dilutions were added and the cell-peptide mixtures were incubated typically for 1 hour at 37° C., followed by the addition of a DENV serotype 2 preparation (NIBSC code S16803) at a multiplicity of infection (m.o.i.) of 0.001. The cells were then incubated for 1 hour at 37° C., and once the period of incubation with the viral inoculum concluded, were washed again to remove unbound virions and incubated for 5 days at 37° C. in high density medium (MEM supplemented with non-essential amino acids, 1% FBS, 1% carboxymethylcellulose) in order to let viral plaques form. Afterwards, the cells were stained with 0.1% Naphtol Blue Black in 0.15 M sodium acetate. Two replicates per experimental point were used in each assay, and three independent determinations were performed for each sample.
(§3) Next, it was decided to compare the antiviral activity of peptides PHB4 and HDIII3CL against all four DENV serotypes, with the objective of comparing their respective IC50 values. […]

[3] = tested on: DENV1 (NIBSC code West Pac 74); assay: Plaque reduction assay in Vero cells, DENV1; type: cell-based, Dengue virus; settings: m.o.i. 0.001, read-out: Antiviral activity IC50 vs DENV1
Procedure: as §2, §3

[4] = tested on: DENV serotype 2 (NIBSC code S16803); assay: Plaque reduction assay in Vero cells, DENV2; type: cell-based, Dengue virus
Procedure: as §2
Next, it was decided to compare the antiviral activity of peptides PHB4 and HDIII3CL against all four DENV serotypes, with the objective of comparing their respective IC50 values. This comparison was performed with plaque reduction assays on Vero cells, adding the viral inoculum for each serotype (DENV1, NIBSC code West Pac 74, DENV2, NIBSC, code S16803; DENV3, NIBSC, code CH53489; DENV 4, NIBSC code TVP360) at a m.o.i. of 0.001.

[5] = tested on: DENV3 (NIBSC code CH53489); assay: Plaque reduction assay in Vero cells, DENV3; type: cell-based, Dengue virus; settings: m.o.i. 0.001, read-out: Antiviral activity IC50 vs DENV3
Procedure: as §2, §3

Vero cells = assay: Toxicity in Vero cells (MTT assay and manual cell counting); type: cell-based; settings: ‡ non toxic at 1000 μM
Procedure: as §1

sLRP1-CIV [6] = biological target: T1, sLRP1-CIV (Homo sapiens, UniProt Q07954); settings: other studies; read-out: Affinity of multi-point interaction with clusters II and IV of LRP1; cited from earlier work
T1 construct: purchased R&D Systems, USA

sLRP1-CIV [7] = biological target: T1, sLRP1-CIV; assay: Biacore (SPR) binding to immobilized sLRP1-CIV; settings: double site model, maximum RU vs. concentration
Procedure: The interaction of the beta hairpin peptides with soluble fragments of the LRP1 receptor was studied by Surface Plasmon Resonance (SPR), using a Biacore X unit. In this technique, one of the interaction partners to be studied is immobilized on the surface of a chip, and the other interaction partner is dissolved in a solution that runs through the measurement cell on top of the interaction surface, under conditions of controlled flow. The association and dissociation of interacting partners is measured in resonance units (RU) and plotted, as a function of time, on charts known as ‘sensorgrams’. SPR, therefore, enables the experimenter to obtain detailed information about the interaction without having to label either interaction partner.
In this example, one channel of a CM5 chip (GE Healthcare, USA) was used to immobilize protein sLRP1-CIV on its surface at high density (see Table 6) and recombinant Human Serum Albumin (rHSA, Sigma-Aldrich, USA) was immobilized on the other channel.
Although it was decided to immobilize sLRP1-CIV at high density because these conditions make easier the detection of any potential interactions with compounds whose molecular weight is lower than that of average proteins (such as the peptides this experiment is intended to study), it must be stressed that in high-density surfaces, mass transfer limitations and the possibility of multivalent binding make difficult the accurate determination of kinetic constants. Therefore, and in order to characterize in greater detail the sLRP1-CIV binding surface, different RAP dilutions (0.6-20 μM) were loaded, and RU were registered under conditions of interaction equilibria (250 sec, see FIG. 13B). […] The data also indicate that immobilized sLRP1-CIV faithfully reproduces the previously reported characteristics of the LRP1-RAP interaction.
The binding of beta hairpin peptides to sLRP1-CIV was studied by loading 20 μM dilutions in running buffer of the different peptide variants onto the sLRP1-CIV chip characterized above. The high strength of the resulting signals is consistent with the binding of aggregated, rather than monomeric forms of the peptides. Therefore, the observed variations between different peptides may reflect either differences in the affinity of unitary peptide interactions or differences in aggregation numbers and/or geometries that lead to variations in the number of peptide units able to simultaneously engage immobilized sLRP1-CIV molecules in a multivalent manner. […] The difference between peptides HDIII3CL2 and HDIII3CL is that the former has an additional C-terminal lysine and has, therefore, a stronger cationic character, which may facilitate additional electrostatic interactions with the negatively charged LRP1 receptor.

[8] = DENV2, plaque reduction, NA = no detectable activity at concentrations lower than or equal to 100 μM, read-out: IC50, antiviral activity in Vero cells (50% inhibitory activity)

Compound: CC[C@H](C)[C@@H]1NC(=O)CNC(=O)[C@H]([C@@H](C)CC)NC(=O)[C@H](C(C)C)NC(=O)[C@H]([C@@H](C)CC)NC(=O)[C@H](CC(N)=O)NC(=O)[C@H](CO)NC(=O)[C@@H](N)CSSC[C@@H](C(=O)N[C@@H](CCCCN)C(=O)N[C@@H](CCCCN)C(N)=O)NC(=O)[C@H](Cc2c[nH]c3ccccc23)NC(=O)[C@H](CC(N)=O)NC(=O)[C@H]([C@@H](C)CC)NC(=O)[C@H](CCCCN)NC(=O)[C@H](CC(C)C)NC(=O)[C@H](C)NC(=O)[C@H](CCCCN)NC(=O)[C@H](CC(=O)O)NC(=O)CNC1=O [HDIII3CL, reference compound] (H-CSNIVIGIGDKALKINWCKK-NH2; disulfide 1-18)
- CC50 [1]: 1000 µM
- pIC50 [2]: 4.30
- pIC50 [3]: 4.82
- pIC50 [4, 8]: 4.70
- pIC50 ([4]; Vero cells, m.o.i. 0.001, read-out: Antiviral activity IC50 vs DENV2): 4.70
- pIC50 [5]: 4.70

Compound: CC[C@H](C)[C@@H]1NC(=O)[C@H](Cc2ccccc2)NC(=O)[C@H](Cc2c[nH]c3ccccc23)NC(=O)[C@H](CC(N)=O)NC(=O)[C@H](C(C)C)NC(=O)[C@H](CCCCN)NC(=O)[C@H](CCCCN)NC(=O)[C@H](CC(=O)O)NC(=O)[C@H]2CCCN2C(=O)[C@H](CCC(=O)O)NC(=O)[C@H]([C@@H](C)O)NC(=O)[C@H](Cc2c[nH]c3ccccc23)NC(=O)[C@H](CC(N)=O)NC(=O)[C@H](C(C)C)NC(=O)[C@H](CCC(=O)O)NC(=O)[C@H]([C@@H](C)CC)NC(=O)[C@@H](N)CSSC[C@@H](C(=O)N[C@@H](CCCCN)C(=O)N[C@@H](CCCCN)C(=O)N[C@@H](CCCCN)C(N)=O)NC1=O [PHB3] (H-CIEVNWTE[dP]DKKVNWFICKKK-NH2; disulfide 1-18)
- Ctox50 (Vero cells): >>1000^‡ μM
- pIC50 [4, 8]: 4.77

Compound: RAP: Receptor-Associated Protein, a known LRP1 ligand
- pKd (sLRP1-CIV [6]): 7.74 to 8.22
- pKd (sLRP1-CIV [7]; read-out: Kd of high-affinity interaction): 8.38
- pKd (sLRP1-CIV [7]; read-out: Kd of low-affinity interaction): 5.96
